From PubChem BioAssay (NCI)
Values joined by “and” are separate entries in the source; they are usually repeats but may differ in a detail not shown here. Equal values may be shown once.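 Five concentrations, 48 hours, 96-well plates. GI50 = concentration required for 50% inhibition of growth. The concentration for full growth arrest is given as TGI.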 Where a SMILES comes first, the peptide text is derived from it. [ ]: non-standard residue; d: D form. The star is where a group is joined. ξ: configuration not given here. X3 = COc1ccc(C(N*)c2ccc(OC)cc2)cc1; NMeF = CN[C@@H](Cc1ccccc1)C(=O)O; NMeD = CN[C@@H](CC(=O)O)C(=O)O; NMeV = CN[C@H](C(=O)O)C(C)C; ξNMeV = CNC(C(=O)O)C(C)C; Boc = CC(C)(C)OC(=O)*; ξNMeA = CNC(C)C(=O)O; ξV = CC(C)C(N)C(=O)O

Assays:
Assay in all cases: growth of human tumour cells (NCI), 48 h
OVCAR-5 ovarian = system: OVCAR-5 ovarian
MDA-MB-435 = system: MDA-MB-435
HOP-92 NSCLC = system: HOP-92 NSCLC
HCT-116 colon = system: HCT-116 colon
MCF7 breast = system: MCF7 breast
UO-31 renal = system: UO-31 renal
M14 melanoma = system: M14 melanoma
SK-MEL-2 melanoma = system: SK-MEL-2 melanoma
SK-MEL-28 melanoma = system: SK-MEL-28 melanoma
OVCAR-3 ovarian = system: OVCAR-3 ovarian

| Compound | GI50 (OVCAR-5 ovarian) [µM] | TGI (OVCAR-5 ovarian) | GI50 (MDA-MB-435) [µM] | TGI (MDA-MB-435) [µM] | GI50 (HOP-92 NSCLC) [µM] | TGI (HOP-92 NSCLC) | GI50 (HCT-116 colon) [µM] | TGI (HCT-116 colon) | GI50 (MCF7 breast) [µM] | TGI (MCF7 breast) [µM] | GI50 (UO-31 renal) [µM] | TGI (UO-31 renal) | GI50 (M14 melanoma) [µM] | TGI (M14 melanoma) | GI50 (SK-MEL-2 melanoma) [µM] | TGI (SK-MEL-2 melanoma) | GI50 (SK-MEL-28 melanoma) [µM] | TGI (SK-MEL-28 melanoma) | GI50 (OVCAR-3 ovarian) [µM] | TGI (OVCAR-3 ovarian) |
| --- | --- | --- | --- | --- | --- | --- | --- | --- | --- | --- | --- | --- | --- | --- | --- | --- | --- | --- | --- | --- |
| Nc1n[nH]c2cc(F)c([C@@H]3Nc4ccc5[nH]ncc5c4[C@H]4C5CCC(C5)[C@@H]34)cc12 (stereo partly specified) | 0.326 | 24.4 µM | 0.0854 | 0.306 | 0.24 | 9.01 µM | 0.174 | 1.24 µM | 0.115 | 9.18 | 0.651 | 30.8 µM | 0.147 | 12.3 µM | 0.798 | 20.1 µM | 1.37 | 21.9 µM | 0.167 | 6.35 µM |
| COCCOc1ccc(-c2nc3ccc(-c4nc5ccc(N6CCN(C)CC6)cc5[nH]4)cc3[nH]2)cc1 | 3.59 | 9.97 µM | 0.621 | 2.14 | 2.16 | 9.71 µM | 0.358 | 2.46 µM | 0.316 | 11.8 | 29.4 | > 100 µM | 0.449 | 2.5 µM | 1.64 | 3.59 µM | 0.478 | 2.21 µM | 0.621 | 3.13 µM |
| COc1ccc(C(NC(=O)C[C@@H](C(=O)N(C)C(C)C(=O)O)N(C)C(=O)[C@@H]2CCCN2C(=O)[C@H](C(C)C)N(C)C(=O)C(C(C)C)N(C)C(=O)[C@H](Cc2ccccc2)N(C)C(=O)C(NC(=O)OC(C)(C)C)C(C)C)c2ccc(OC)cc2)cc1 (stereo partly specified) (Boc-[ξV][NMeF][ξNMeV][NMeV]P[NMeD](X3)[ξNMeA]-OH) | 17.3 | > 37.5 µM and 31.5 µM |  | 20 | 15.8 | 23.8 µM and 29.2 µM | 17.3 | 36.2 µM and 34.6 µM |  | 37.5 | 17.6 | 37.5 µM and 31.5 µM | 17.4 | 28.6 µM and 31.1 µM | 14.5 | 16.8 µM and 28.9 µM | 17.1 | 13.6 µM and 30.9 µM | 18.2 | 27.4 µM and 32.9 µM |
| COc1ccc2nc3cc(Cl)ccc3c(NCCNCC(C)O)c2c1 (stereo unspecified) | 1.67 | 6.3 µM | 1.51 | 3.1 | 2.6 | 6.68 µM | 0.751 | 3.17 µM | 1.28 | 5.51 | 1.73 | 4.85 µM | 1.68 | 3.6 µM | 2.08 | 4.26 µM | 2.06 | 4.02 µM | 2.38 | 8.04 µM |
| O=C1CCCCN1c1ccccc1C#C/C=C\C#Cc1ccccc1C(F)(F)F | 3.35 | > 50 µM | 0.603 | 1.8 | 10.7 | 43.1 µM | 1.01 | 2.59 µM | 2.5 | > 50 | 2 | 13.6 µM | 0.909 | 2.29 µM | 7.26 | > 50 µM | 1.09 | 3.36 µM | 0.879 | 2.4 µM |
| CN(C)CC1CC/C(=C\c2ccc(O)cc2)C1=O (stereo unspecified) |  | 31.6 µM |  | 10.8 |  | 5.82 µM |  | 4.09 µM |  | 4.56 |  | 26.5 µM |  | 4.95 µM |  | 21.1 µM |  | 6.08 µM |  | 8.33 µM |
| COc1ccc(CCN=C2NC(=O)/C(=C/c3ccc4ncccc4c3)S2)cc1 | > 25 | > 25 µM | > 25 | > 25 | > 11.3 | > 25 µM | > 25 | > 25 µM | > 25 | > 25 | > 25 | > 25 µM | > 25 | > 25 µM | > 25 | > 25 µM | > 25 | > 25 µM | > 25 | > 25 µM |
| Cc1csc(-c2nnc(Nc3ccc(Oc4ncccc4-c4ccnc(N)n4)cc3)c3ccccc23)c1 | > 100 | > 100 µM | 2.45 | > 100 | > 100 | > 100 µM | 1.89 | > 100 µM | 0.13 | > 100 |  | > 100 µM | 1.51 | > 100 µM | 2.71 | > 26.9 µM | 2.1 | > 100 µM |  | > 100 µM |
| COc1cccc(C(=O)NC(c2ccc(C)cc2)c2cc(Cl)c3cccnc3c2O)c1 (stereo unspecified) | 1.13 | 24.4 µM | 0.56 | 23.7 | 0.474 | 9.33 µM | 0.495 | 14.4 µM | 0.371 | > 30.4 | 0.362 | 10.8 µM | 0.677 | 10.8 µM | 0.767 | 9.16 µM | 0.743 | 17.1 µM | 0.346 | 18.6 µM |
| O=C(/C=C/c1ccc(O)cc1)c1ccc(O)cc1 |  | > 76.3 µM |  | > 100 |  | 76 µM |  | 36.3 µM |  | > 100 |  | 51.2 µM |  | 42.7 µM |  | 50 µM |  | 61.3 µM |  | 52.1 µM |
| N#Cc1c[nH]n2c(N=Nc3ccc(Cl)cc3)c(O)nc12 | 84.9 | > 100 µM | 44.3 | > 100 | 13.1 | 52.2 µM | 92.8 | > 100 µM | 21 | > 100 | 32.3 | > 100 µM | 77.3 | > 100 µM | 52 | > 100 µM | 44.4 | > 100 µM | 40.3 | > 100 µM |
| c1ccc(Sc2ncnc3ccccc23)cc1 | 19.2 | 37.2 µM | 8.19 | 32.5 | 4.49 | 27.5 µM | 10.9 | 23.7 µM | 17.8 | 67.9 | 5.07 | 21.1 µM | 12.3 | 27.6 µM | 22.6 | 63 µM | 23.7 | 89.2 µM | 14.6 | 28 µM |
